Assay results: PubChem BioAssay (NCI)
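All cell lines were grown in 96-well plates and treated with compound for 48 hours. TGI marks complete inhibition of growth.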

Legend:
Experiment in all cases: NCI tumour cell line growth inhibition, 48 h
A549 NSCLC = test system: A549 NSCLC
COLO 205 colon = test system: COLO 205 colon
HCT-116 colon = test system: HCT-116 colon
HCT-15 colon = test system: HCT-15 colon
K-562 leukemia = test system: K-562 leukemia
M14 melanoma = test system: M14 melanoma
MALME-3M melanoma = test system: MALME-3M melanoma
MDA-N = test system: MDA-N
NCI-H226 lung = test system: NCI-H226 lung
OVCAR-5 ovarian = test system: OVCAR-5 ovarian
SF-295 CNS = test system: SF-295 CNS
SF-539 CNS = test system: SF-539 CNS
SK-MEL-2 melanoma = test system: SK-MEL-2 melanoma
SN12C renal = test system: SN12C renal
SR leukemia = test system: SR leukemia
SW-620 colon = test system: SW-620 colon
T-47D breast = test system: T-47D breast
UACC-257 melanoma = test system: UACC-257 melanoma
UO-31 renal = test system: UO-31 renal
SNB-75 CNS = test system: SNB-75 CNS

## CN(C)CCCn1c(Cc2ccc(Cl)cc2)nc2cc(C(F)(F)F)ccc21
A549 NSCLC
  TGI: 32.8 µM
COLO 205 colon
  TGI: 29.3 µM
HCT-116 colon
  TGI: 25 µM
HCT-15 colon
  TGI: 32.8 µM
K-562 leukemia
  TGI: > 32.5 µM
M14 melanoma
  TGI: 25.6 µM
MALME-3M melanoma
  TGI: 24 µM
MDA-N
  TGI: 25.4 µM
NCI-H226 lung
  TGI: 36.4 µM
OVCAR-5 ovarian
  TGI: 32.5 µM
SF-295 CNS
  TGI: 31.4 µM
SF-539 CNS
  TGI: 32.2 µM
SK-MEL-2 melanoma
  TGI: 31 µM
SN12C renal
  TGI: 29.4 µM
SR leukemia
  TGI: > 100 µM
SW-620 colon
  TGI: > 57.8 µM
T-47D breast
  TGI: 27.2 µM
UACC-257 melanoma
  TGI: 30.1 µM
UO-31 renal
  TGI: 1 µM

## Clc1nssc1=Nc1nonc1-c1ccccc1
A549 NSCLC
  TGI: > 100 µM
COLO 205 colon
  TGI: 36.7 µM
HCT-116 colon
  TGI: > 100 µM
HCT-15 colon
  TGI: > 100 µM
K-562 leukemia
  TGI: 70.1 µM
M14 melanoma
  TGI: 37.2 µM
MALME-3M melanoma
  TGI: 99.2 µM
MDA-N
  TGI: 41.2 µM
NCI-H226 lung
  TGI: > 100 µM
OVCAR-5 ovarian
  TGI: 49.3 µM
SF-295 CNS
  TGI: > 100 µM
SF-539 CNS
  TGI: 66.1 µM
SK-MEL-2 melanoma
  TGI: > 100 µM
SN12C renal
  TGI: 42.4 µM
SNB-75 CNS
  TGI: 64.2 µM
SR leukemia
  TGI: 68.6 µM
SW-620 colon
  TGI: > 100 µM
UACC-257 melanoma
  TGI: > 100 µM
UO-31 renal
  TGI: 36.3 µM

## C=C1C(=O)O[C@@H]2[C@@H]3O[C@@H](C[C@@H]13)[C@](C)(O)CC/C=C(\C)CCC[C@@H]2C
A549 NSCLC
  TGI: 34.3 µM
COLO 205 colon
  TGI: 31.5 µM
HCT-116 colon
  TGI: 21.2 µM
HCT-15 colon
  TGI: 33.4 µM
K-562 leukemia
  TGI: 85.5 µM
M14 melanoma
  TGI: 27 µM
MALME-3M melanoma
  TGI: 26.8 µM
MDA-N
  TGI: 18.3 µM
NCI-H226 lung
  TGI: 36.1 µM
OVCAR-5 ovarian
  TGI: 48 µM
SF-295 CNS
  TGI: 44.7 µM
SF-539 CNS
  TGI: 24.9 µM
SK-MEL-2 melanoma
  TGI: 27.7 µM
SN12C renal
  TGI: 25.3 µM
SNB-75 CNS
  TGI: 26.1 µM
SW-620 colon
  TGI: 38.4 µM
T-47D breast
  TGI: 43.9 µM
UACC-257 melanoma
  TGI: 27 µM
UO-31 renal
  TGI: 23 µM

## Cc1cc(C)c(S(=O)(=O)N2CCCN(S(=O)(=O)c3c(C)cc(C)cc3C)OCCCO2)c(C)c1
A549 NSCLC
  TGI: > 100 µM
COLO 205 colon
  TGI: > 100 µM
HCT-116 colon
  TGI: > 100 µM
HCT-15 colon
  TGI: > 100 µM
K-562 leukemia
  TGI: > 100 µM
M14 melanoma
  TGI: > 100 µM
MALME-3M melanoma
  TGI: > 100 µM
MDA-N
  TGI: > 100 µM
NCI-H226 lung
  TGI: > 100 µM
OVCAR-5 ovarian
  TGI: > 100 µM
SF-295 CNS
  TGI: > 100 µM
SK-MEL-2 melanoma
  TGI: > 100 µM
SN12C renal
  TGI: > 100 µM
SNB-75 CNS
  TGI: > 100 µM
SW-620 colon
  TGI: > 100 µM
T-47D breast
  TGI: > 100 µM
UACC-257 melanoma
  TGI: > 100 µM
UO-31 renal
  TGI: > 100 µM

## COC(=O)c1ccc(NC(=O)O/N=C(\Cl)C(C)C)cc1
A549 NSCLC
  TGI: 43.2 µM
COLO 205 colon
  TGI: 3.72 µM
HCT-116 colon
  TGI: 17.2 µM
HCT-15 colon
  TGI: 3.49 µM
M14 melanoma
  TGI: 12 µM
MALME-3M melanoma
  TGI: 3.48 µM
MDA-N
  TGI: 22.8 µM
NCI-H226 lung
  TGI: > 53.6 µM
OVCAR-5 ovarian
  TGI: 32.8 µM
SF-295 CNS
  TGI: 33.3 µM
SK-MEL-2 melanoma
  TGI: 31.5 µM
SN12C renal
  TGI: 13.9 µM
SNB-75 CNS
  TGI: 26.3 µM
SW-620 colon
  TGI: 3.77 µM
T-47D breast
  TGI: 5.02 µM
UACC-257 melanoma
  TGI: 28.6 µM
UO-31 renal
  TGI: 28.7 µM

## Cc1occc1C(=S)Nc1ccc(Cl)c(C(=O)OC(C(C)C)C(C)C)c1
A549 NSCLC
  TGI: 31.8 µM
COLO 205 colon
  TGI: 34.4 µM
HCT-116 colon
  TGI: 24.5 µM
HCT-15 colon
  TGI: 33.7 µM
M14 melanoma
  TGI: 35.3 µM
MALME-3M melanoma
  TGI: 26 µM
MDA-N
  TGI: 29 µM
NCI-H226 lung
  TGI: 32.2 µM
OVCAR-5 ovarian
  TGI: 57.2 µM
SF-295 CNS
  TGI: 18.5 µM
SF-539 CNS
  TGI: 35 µM
SK-MEL-2 melanoma
  TGI: 38.4 µM
SN12C renal
  TGI: 30.9 µM
SR leukemia
  TGI: 28 µM
SW-620 colon
  TGI: 46.2 µM
T-47D breast
  TGI: 18.1 µM
UACC-257 melanoma
  TGI: 19.2 µM
UO-31 renal
  TGI: 17.5 µM
